Reference: US10300049B2, “Myeloid differentiation inducing agents” (CASE WESTERN RESERVE UNIVERSITY, priority 2007, dated 2019)

Columns and labels:
[1] = system: HL-60 cells; experiment: Flow cytometry of CD11b and CD14 cell surface markers; format: cell-based, human; settings: for CD11b positive / CD14 positive: 4 days
Description: HL-60 cells were treated with the indicated compounds for 4 days, the cells were stained with CD11b-PE and CD14-FITC, and flow cytometric analysis was performed.

[2] = system: GABA A receptor; settings: compared with securinine; cited from earlier work
[3] = system: HL-60 cells; experiment: NBT reduction assay of differentiation in HL-60 cells; format: cell-based, human; settings: for NBT (%): 10 days; for NBT reduction, ATRA alone (%) / NBT reduction, Decitabine alone (%): 4 days; for cells differentiated, NBT reduction assay: HL-60 cells, 4 days (FIG. 3)
Excerpt: The NBT screen works due to changes in the oxidoreductases during differentiation that lead to increases in rates of NBT reduction. NBT is reduced due to the production of superoxide that is catalyzed by an NADPH oxidase. […] A quantitative NBT reduction assay is ideal for this type of screen as it is simple, sensitive, quantitative, requires minimal cells, has been proven to have low well to well variability, and the amount of reduced NBT is proportional to the number of cells reducing the dye as well as the amount reduced by each cell.
(§1) […] […] Differentiation is determined in the 96 well plates by incubating the cells with 1 mg/ml of NBT and 200 ng/ml of PMA as the stimulant for the respiratory burst for 35 minutes at 37° C. The reaction can then be stopped with HCL and the formazan will be solubilized with DMSO. Finally, the reaction mixture will be read spectrophotometricaly at 560 nm in a plate reader.
as §1, with “will” for “can”
The assays are done using the colorimetric process. The NBT reduction assay measures the respiratory burst and is done by stimulating the respiratory burst in cells with PMA and then looking for a color change in the NBT dye.

[4] = system: HL-60 cells; experiment: Cell cycle, propidium iodide flow cytometry; format: cell-based, human; settings: 4 days
Description: HL-60 cells were treated with the indicated compounds for 4 days and the cells were stained with propidium iodide and analyzed by flow cytometry.

[5] = system: HL-60 cells; experiment: Morphology, cytospin with Wright-Giemsa stain; format: cell-based, human; settings: 4 days
Description: HL-60 cells were treated with the indicated compounds for 4 days. Cytospin preparations were prepared and the cells were stained with Wright-Giemsa stain.

[6] = system: HL-60 subcutaneous tumors; experiment: Established HL-60 subcutaneous tumor xenograft in nude mice; format: in vivo
Description: Nude mice (5 per experimental group) were injected with 5×10^7 HL-60 cells bilaterally into the flank. 9 days after tumor cell inoculation, the indicated drugs were injected I.P. three times a week for 3 weeks. […] Representative picture of the mice at the end of the study period (B). Representative picture of tumors dissected from the indicated mice. (C). Average weights of tumors dissected from all mice (D).
(§2) In order to further assess the in vivo potential of 6BT and Securinine, mouse xenograft experiments were performed. In the first model, the ability of 6BT and Securinine to inhibit established HL-60 subcutaneous leukemic tumor growth in nude mice was assessed. […] In the second model system, the ability of 6BT to prevent either HL-60 or MV-411 tumor formation in nude mice was assessed.
(§3) This Example assed the effects of securinine and its analogues in mice. […] HL-60 cell is an AML cell line commonly used for in-vitro studies and typically they are classified as M2 subtype. […] Therefore this was the highest dose that could be safely utilized.
Next we repeated the mouse xenograft experiments using i.p. drug administration (20 mg/kg), but with twice a day dosing again using HL-60 cell tumors.
Securinine (20 mg/kg) or vehicle ([…]) was injected i.p. into mice starting 10 days after HL-60 cell inoculation bilaterally into the flanks of nude mice (5 mice per group).

[7] = system: Bcl-2; experiment: Bcl-2 Western blot in HL-60 cells; format: cell-based, human; settings: 1, 3, or 5 days
Description: (§4) HL-60 cells were treated with the indicated compounds for 1, 3, or 5 days and cells were lysed. Western blot analysis was performed with p21, Bcl-2, and actin antibodies.

[8] = system: p38delta; experiment: Gene expression (microarray, real time PCR) in HL-60 cells; format: cell-based, human
Description: FIG. 14 illustrates graphs showing 6BT and securinine regulate the expression of genes that may play important roles in myeloid differentiation. HL-60 cells were treated with the indicated compounds for 1 or 3 days and total RNA was prepared. The relative expression of the indicated genes was assessed by real time PCR.
In order to further assess the signaling pathways of 6BT and securinine as well as to further elucidate the myeloid differentiation program in general, gene microarray studies were performed. These initial studies assessed the gene expression pattern at 16 and 72 hours after treatment. […] Several of these genes are known to be involved in the differentiation of non-hematopoietic cells such as neuron, muscle, and or keratinocyte differentiation. Selected examples of genes whose expression is strongly regulated by securinine and 6BT that have been verified is seen in […].

[9] = known; cited from earlier work
[10] = system: CEBPβ; experiment: CEBPβ expression by real time PCR in HL-60 cells; format: cell-based, human; settings: 1, 3, or 5 days
Description: (§5) FIG. 11 illustrates graphs showing securinine and 6BT downregulate c-myc expression and upregulate CEBPB. HL-60 cells were treated with the indicated compounds for 1, 3, or 5 days and total RNA was prepared. The relative expression of c-myc and CEPβ was determined by real time PCR.

[11] = system: p44/p42 and p38; experiment: Phospho-specific Western blot of p44/p42 and p38 in HL-60 cells; format: cell-based, human; settings: 15 to 60 minutes
Description: FIG. 13 illustrates an immunoblot showing 6BT and Securinine activate both p44/p42 and p38. HL-60 cells were treated with the indicated compounds for 15, 20, 46, or 60 minutes and the cells were lysed. Western blot analysis was performed with phospho-specific antibodies to p44/p42 and p38 as well as the actin anibody.

[12] = system: primary patient leukemic samples; experiment: Differentiation and cell death in other AML cell lines and primary patient leukemic samples; format: cell-based, human
Description: FIGS. 7(A-B) illustrate 6BT and securinine have potent differentiation and cell death effects on primary leukemic samples. Primary patient leukemic samples were stained with CD34+ and sorted by flow cytometry. Leukemic cells were treated with the indicated compounds (6BT […]) for up to 7 days. A. Representative pictures showing morphological differentiation of primary patient samples B. 6BT and Securinine treated primary leukemic cells show either differentiation by NBT reduction or cell death.
In several cases, the compounds were able to induce a higher amount of differentiation than ATRA. It should be noted, that though ATRA is only clinically useful for APL, it is well known to potently induce the differentiation of many other AML cell lines in vitro. […] Though the exact mechanisms are not yet clear, certain leukemic cells appear to preferentially undergo cell death in response to 6BT and Securinine prior to full differentiation.
We then tested the effects of securinine on patient samples. […] Unfortunately, many of the patient samples were not suitable for analysis. A significant portion of the cells that were obtained were either nonviable or contaminated with bacteria.

[13] = system: OCI-AML3 cells; experiment: NBT reduction assay in OCI-AML3 cells; format: cell-based; settings: 4 days
Description: The two most promising compounds (compound 2A and compound 2B) were further tested for their differentiation activity in several additional AML cell lines as compared to securinine (FIG. 17). […] In all three cell lines tested, a dose of only 2.5 uM of compound 2B was sufficient to induce nearly complete differentiation.
The above indicated cells were treated for 4 days and the NBT reduction assay was performed. The X-axis refers to the cell treatments and the Y-axis denotes the percentage of differentiation as measured by the NBT Reduction assay.

[14] = system: normal human lymphocytes, normal human bone marrow, mouse embryonic fibroblasts, and human umbilical vein endothelial cells; experiment: Toxicity on normal cells; format: cell-based
Excerpt: In order to further assess the toxicity of 6BT and Securinine, normal human lymphocytes, normal human bone marrow, mouse embryonic fibroblasts, and human umbilical vein endothelial cells were examined.

[15] = system: 60 cancer cell lines; settings: highest concentration used 100 μM; cited from earlier work
[16] = Toxicity, tolerability and seizures in mice
Description: as §2, §3
We performed a preliminary test with the two most promising analogues, compound 2A and compound 2B to verify their safety.

[17] = system: c-myc; experiment: c-myc expression by real time PCR in HL-60 cells; format: cell-based, human; settings: 1, 3, or 5 days
Description: as §5

[18] = system: p21; experiment: p21 Western blot in HL-60 cells; format: cell-based, human; settings: 1, 3, or 5 days
Description: as §4

C=C1/C(=C\C=C2/CCC[C@]3(C)[C@@H]([C@H](C)CCCC(C)(C)O)CC[C@@H]23)C[C@@H](O)C[C@@H]1O [Vitamin D, 1,25-dihydroxyvitamin D3, reference compound]
CD11b positive ([1]; 100 nM): 90%
CD14 positive ([1]; 100 nM): 65%

O=C1C=C2C=C[C@@H]3C[C@@]2(O1)[C@@H]1CCCCN31 [Allosecurinine, allosecurinine]
GABA A receptor affinity [2]: decreased GABA A receptor affinity
NBT (%) ([3]; 0.06 μM): 20%
NBT (%) ([3]; 1.25 μM): 25%
NBT (%) ([3]; 2.5 μM): 40%
NBT (%) ([3]; 5 μM): 50%
NBT (%) ([3]; 10 μM): 80%

Cc1cc(O)nc2cc3oc4ccccc4c3cc12 [Compound 375, 4-methyl[1]benzofuro[3,2-g]quinolin-2-ol]
cell cycle phase in which cells accumulate [4]: accumulation in G2/M
morphologic changes [5]: reproducible, but less pronounced changes
CD11b positive ([1]; 10 μM): 64%
CD14 positive ([1]; 10 μM): 19%

O=C1C=C2C=C[C@H]3C[C@]2(O1)[C@@H]1CCCCN13 [Virosecurinine, virosecurinine]
GABA A receptor affinity [2]: decreased GABA A receptor affinity
NBT (%) ([3]; 0.06 μM): 20%
NBT (%) ([3]; 1.25 μM): 30%
NBT (%) ([3]; 2.5 μM): 50%
NBT (%) ([3]; 5 μM): 99%
NBT (%) ([3]; 10 μM): 95%

CC1=C(/C=C/C(C)=C/C=C/C(C)=C/C(=O)O)C(C)(C)CCC1 [ATRA, all-trans-retinoic acid, reference compound]
tumor growth compared to vehicle treated mice ([6]; 15 mg/kg twice a day): did not show any difference in tumor growth
CD11b positive ([1]; 1 μM): 77%
CD14 positive ([1]; 1 μM): 8%
NBT reduction, ATRA alone (%) ([3]; ATRA 3 nM): 7%
NBT reduction, ATRA alone (%) ([3]; ATRA 9 nM): 9%
NBT reduction, ATRA alone (%) ([3]; ATRA 26 nM): 16%
NBT reduction, ATRA alone (%) ([3]; ATRA 80 nM): 37%
NBT reduction, ATRA alone (%) ([3]; ATRA 250 nM): 59%
cells differentiated, NBT reduction assay [3]: ~95%

Nc1ncn([C@H]2C[C@H](O)[C@@H](CO)O2)c(=O)n1 [Decitabine, reference compound]
NBT reduction, Decitabine alone (%) ([3]; Decitabine 10 ng/ml): 14%
NBT reduction, Decitabine alone (%) ([3]; Decitabine 50 ng/ml): 23%
NBT reduction, Decitabine alone (%) ([3]; Decitabine 100 ng/ml): 26%

O=C1C=C2C=C[C@@H]3C[C@@]2(O1)[C@H]1CCCCN31 [Securinine]
average tumor size smaller than vehicle treated mice at end of study ([6]; 20 mg/kg i.p. twice a day): more than 75%
effect on growth of HL-60 subcutaneous tumors ([6]; 20 mg/kg once a day): could not detect any significant effects
inhibition of established HL-60 subcutaneous leukemic tumor growth ([6]; first model, I.P. three times a week for 3 weeks from day 9): not Securinine was found to have significant in vivo activity
cell cycle phase in which cells accumulate [4]: accumulation of cells in G0/G1
Bcl-2 protein level [7]: downregulation of Bcl-2
p38delta expression [8]: upregulated
morphologic changes [5]: clear morphologic changes suggestive of monocytic differentiation
metabolism in vivo [9]: extremely rapid metabolism in vivo
seizures [9]: lead to seizures
CEBPβ expression [10]: time-dependent upregulation of CEBPβ
phosphorylation of p44/p42 and p38 [11]: rapid phosphorylation of p44/p42 and p38
cell death of specific leukemic cell lines and primary patient samples [12]: quicly undergo cell death
differentiation of other AML cell lines and primary patient leukemic samples ([12]; 6BT 10 mM, Securinine 15 mM, up to 7 days (FIG. 7)): effective in differentiating other AML cell lines besides HL-60 cells, as well as primary patient leukemic samples
leukemia patient samples in which differentiation was induced ([12]; samples suitable for analysis): 8 of 10
differentiation activity in OCI-AML3 cells [13]: modest differentiation activity
toxicity on normal cells [14]: induced cell death occurred at doses higher than those required for activity on leukemia cells
average LD50 across the 60 cancer cell lines [15]: 97 µM
CD11b positive ([1]; 10 μM): 87%
CD14 positive ([1]; 10 μM): 86%
synergy in upregulation of CD11b ([1]; with ATRA and decitabine, data not shown): synergize in the upregulation of CD11b
toxicity in mice ([16]; 20 mg/kg): no evident toxicities
seizures in mice ([16]; dose approximately two fold higher than 20 mg/kg): lead to seizures
cells differentiated, NBT reduction assay [3]: ~95%
concentration at which significant differentiation or cell death effects upon the leukemic cells occur ([3]; leukemic cells in our studies): ~10 µM
enhancement of differentiation induced by ATRA and decitabine ([3]; low concentrations, NBT reduction assay): capable of enhancing the differentiation induced by both ATRA and decitabine
c-myc expression [17]: potently downregulate c-myc
p21 protein level [18]: upregulated
